SMILES strings stand for the structures.

This assay is described as follows: Radiation-induced photodegradation in […] X174 Rf1 DNA assessed as conversion of type 2 DNA at 1 uM after 3 hrs.

`O=C(O)CCOCCOCCOCCOCCOCCOCCOCCOCCOCCOCCOCCOCCOCCC(=O)OCc1ccc(C#Cc2ccccc2C#Cc2ccccc2)cc1`: the Activity stood at 24%.

The record behind these values is ChEMBL document CHEMBL1141468, “Photoactivated enediynes as targeted antitumoral agents: efficient routes to antibody and gold nanoparticle conjugates” (Bioorg Med Chem Lett, 2008).
